# Assays:
# [1] = target: T1, NK-1 receptor (Homo sapiens, UniProt P25103); test: NK-1 Receptor Binding Assay (competition with labeled substance P on IM9 cells); conditions: for inhibition at 10 µM: inhibition of substance P binding to the NK-1 receptor, read-out: Percent Inhibition; for IC50: concentration which inhibits fifty percent of the binding of substance P, 20 pM labeled substance P, 45 minutes at 4°C
# T1 construct: an aliquot of IM9 cells; endogenous in cells; host or cells: IM9 cells (whole cells)
# T1 sequence (P25103 whole entry): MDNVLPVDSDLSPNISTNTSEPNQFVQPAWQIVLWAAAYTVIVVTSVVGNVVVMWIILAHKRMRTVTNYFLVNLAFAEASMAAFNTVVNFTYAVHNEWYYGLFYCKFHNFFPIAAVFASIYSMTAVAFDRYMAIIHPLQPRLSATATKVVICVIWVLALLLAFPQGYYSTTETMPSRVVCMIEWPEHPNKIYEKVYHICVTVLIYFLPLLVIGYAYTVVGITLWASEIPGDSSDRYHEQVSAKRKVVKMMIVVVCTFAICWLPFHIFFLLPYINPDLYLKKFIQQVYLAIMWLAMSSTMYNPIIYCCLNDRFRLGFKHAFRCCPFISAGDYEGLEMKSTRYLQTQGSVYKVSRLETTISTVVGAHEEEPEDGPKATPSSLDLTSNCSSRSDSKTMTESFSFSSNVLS
# Procedure: Radioreceptor binding assays were performed using a derivative of a previously published protocol. D.G. Payan, et al., Journal of Immunology, 133:3260-3265 (1984). In this assay an aliquot of IM9 cells (1 x 10⁶ cells/tube in […] medium supplemented with 10% fetal calf serum) was incubated with 20 pM […] substance P in the presence of increasing competitor concentrations for 45 minutes at 4°C.
# The IM9 cell line is a well-characterized cell line which is readily available to the public. See. e.g., Annals of the New York Academy of Science, 190: 221-234 (1972); Nature (London), 251:443-444 (1974); Proceedings of the National Academy of Sciences (USA), 71:84-88 (1974). These cells were routinely cultured in RPMI 1640 supplemented with 50 µg/ml gentamicin sulfate and 10% fetal calf serum.
# The reaction was terminated by filtration through a glass fiber filter harvesting system using filters previously soaked for 20 minutes in 0.1% polyethylenimine. Specific binding of labeled substance P was determined in the presence of 20 nM unlabeled ligand.
# Column 1 provides the example number of the test antagonist compound. The next columns detail the substitution patterns of the test compound.
# [2] = target: T2, human NK-2 receptor (Homo sapiens, UniProt P21452); test: NK-2 Receptor Binding Assay (CHO-hNK-2R membranes, iodohistidyl-neurokinin A); conditions: for inhibition at 10 µM: inhibition of neurokinin A binding at ten micromolar, read-out: Percent Inhibition @ 10 μM
# T2 construct: expressed in transfected cells; host or cells: CHO-hNK-2R cells (CHO-derived), membrane preparation
# T2 sequence (P21452 1-398): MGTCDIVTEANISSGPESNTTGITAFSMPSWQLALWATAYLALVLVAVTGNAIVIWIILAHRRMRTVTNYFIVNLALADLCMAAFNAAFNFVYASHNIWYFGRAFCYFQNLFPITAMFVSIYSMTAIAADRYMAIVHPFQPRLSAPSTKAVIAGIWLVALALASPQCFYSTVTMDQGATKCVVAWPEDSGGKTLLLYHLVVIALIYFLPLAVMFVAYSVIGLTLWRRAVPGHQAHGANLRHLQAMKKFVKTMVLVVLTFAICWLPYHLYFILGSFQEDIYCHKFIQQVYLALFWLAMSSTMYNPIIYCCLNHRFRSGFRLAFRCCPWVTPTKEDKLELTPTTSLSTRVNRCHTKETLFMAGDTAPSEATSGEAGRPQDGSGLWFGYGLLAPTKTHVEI
# Procedure: The CHO-hNK-2R cells, a CHO-derived cell line transformed with the human NK-2 receptor, expressing about 400,000 such receptors per cell, were grown in 75 cm flasks or roller bottles in minimal essential medium (alpha modification) with 10% fetal bovine serum. The gene sequence of the human NK-2 receptor is given in N.P. Gerard, et al., Journal of Biological Chemistry, 265:20455-20462 (1990).
# For preparation of membranes, 30 confluent roller bottle cultures were dissociated by washing each roller bottle with 10 ml of Dulbecco's phosphate buffered saline (PBS) without calcium and magnesium, followed by addition of 10 ml of enzyme-free cell dissociation solution (PBS-based, from Specialty Media, Inc.). After an additional 15 minutes, the dissociated cells were pooled and centrifuged at 1,000 RPM for 10 minutes in a clinical centrifuge. Membranes were prepared by homogenization of the cell pellets in 300 ml 50 mM Tris buffer, pH 7.4 with a Tekmar® homogenizer for 10-15 seconds, followed by centrifugation at 12,000 RPM (20,000 x g) for 30 minutes using a Beckman JA-14® rotor. The pellets were washed once using the above procedure. and the final pellets were resuspended in 100-120 ml 50 mM Tris buffer, pH 7.4, and 4 ml aliquots stored frozen at -70 °C. The protein concentration of this preparation was 2 mg/ml.
# For the receptor binding assay, one 4-ml aliquot of the CHO-hNK-2R membrane preparation was suspended in 40 ml of assay buffer containing 50 mM Tris, pH 7.4, 3 mM manganese chloride, 0.02% bovine serum albumin (BSA) and 4 µg/ml chymostatin. A 200 µl volume of the homogenate (40 µg protein) was used per sample. The radioactive ligand was [[…]]iodohistidyl-neurokinin A (New England Nuclear, NEX-252), 2200 Ci/mmol. The ligand was prepared in assay buffer at 20 nCi per 100 µl; the final concentration in the assay was 20 pM. Non-specific binding was determined using 1 µM eledoisin. Ten concentrations of eledoisin from 0.1 to 1000 nM were used for a standard concentration-response curve.
# All samples and standards were added to the incubation in 10 µl dimethylsulfoxide (DMSO) for screening (single dose) or in 5 µl DMSO for IC₅₀ determinations. The order of additions for incubation was 190 or 195 µl assay buffer, 200 µl homogenate, 10 or 5 µl sample in DMSO, 100 µl radioactive ligand. The samples were incubated 1 hr at room temperature and then filtered on a cell harvester through filters which had been presoaked for two hours in 50 mM Tris buffer, pH 7.7, containing 0.5% BSA. The filter was washed 3 times with approximately 3 ml of cold 50 mM Tris buffer, pH 7.7. The filter circles were then punched into 12 x 75 mm polystyrene tubes and counted in a gamma counter.
# Table II, infra, provides a representative sample of the effectiveness as NK-2 receptor antagonists of many of the compounds of Formula I. The first column provides the Example number of the compound tested. The second column provides either the percent inhibition of neurokinin A binding when the compound is present in a ten micromolar concentration or the amount of compound (in micromolar amounts) necessary to inhibit fifty percent of the binding of neurokinin A. Those values which represent IC₅₀ values are designated by parentheses.
Compound,inhibition at 10 µM [1],inhibition at 10 µM [2],IC50 [1],"IC50 ([2]; values in parentheses, amount necessary to inhibit fifty percent of the binding of neurokinin A)"
"COc1cccc(Cn2c(-c3cc(OC)c(OC)c(OC)c3)nc3ccccc32)c1 [Example 45, 1-(3-methoxybenzyl)-2-(3,4,5-trimethoxyphenyl)-benzimidazole]",81%,23.2%,–,–
"COc1cc(-c2nc3ccc(OCCCCl)cc3n2Cc2ccccc2)cc(OC)c1OC [Example 75, 1-benzyl-2-(3,4,5-trimethoxyphenyl)-6-(3-chloropropoxy)benzimidazole]",–,86.3%,814 nM,–
"Cc1cccc(-c2nc3ccccc3n2Cc2c(Cl)cccc2Cl)c1 [Example 62, 1-(2,6-Dichlorobenzyl)-2-(3-methylphenyl)benzimidazole]",31%,23.1%,–,–
"COc1cc(-c2nc3ccccc3n2Cc2ccccc2I)cc(OC)c1OC [Example 50, 1-(2-iodobenzyl)-2-(3,4,5-trimethoxyphenyl)-benzimidazole]",–,87.4%,823 nM,–
"COc1cc(-c2nc3ccccc3n2Cc2ccc(Cl)c(Cl)c2)cc(OC)c1OC [Example 53, 1-(3,4-dichlorobenzyl)-2-(3,4,5-trimethoxyphenyl)-benzimidazole]",45%,33.4%,–,–
"COc1cc(-c2nc3ccccc3n2Cc2ccccc2C(F)(F)F)cc(OC)c1OC [Example 49, 1-(2-trifluoromethylbenzyl)-2-(3,4,5-trimethoxyphenyl)-benzimidazole]",–,82%,721 nM,–
"COc1cc(-c2nc3ccccc3n2Cc2ccccc2F)cc(OC)c1OC [Example 48, 1-(2-fluorobenzyl)-2-(3,4,5-trimethoxyphenyl)-benzimidazole]",–,44.2%,1390 nM,–

# Continued by falling IC50 [1], values first:
inhibition at 10 µM [1],inhibition at 10 µM [2],IC50 [1],"IC50 ([2]; values in parentheses, amount necessary to inhibit fifty percent of the binding of neurokinin A)",Compound
–,67.7%,449 nM,–,"COc1ccccc1Cn1c(-c2cc(OC)c(OC)c(OC)c2)nc2ccccc21 [Example 47, 1-(2-methoxybenzyl)-2-(3,4,5-trimethoxyphenyl)-benzimidazole]"
–,–,123 nM,6250 nM,"COc1cc(-c2nc3ccc(OCCN4CCC(N5CCCCC5)CC4)cc3n2Cc2ccccc2)cc(OC)c1OC [Example 77, 1-benzyl-2-(3,4,5-trimethoxyphenyl)-6-[2-[4-(piperidin-1-yl)piperdin-1-yl]ethoxy]benzimidazole]"
–,78%,85 nM,–,"COc1cc(-c2nc3ccc(OCCCN4CCCCC4)cc3n2Cc2ccccc2)cc(OC)c1OC [Example 74, 1-benzyl-2-(3,4,5-trimethoxyphenyl)-6-[3-(1-piperidinyl)propoxy]benzimidazole]"
–,83.5%,52 nM,–,"COc1cc(-c2nc3ccc(OCCN4CCCCCC4)cc3n2Cc2ccccc2)cc(OC)c1OC [Example 73, 1-benzyl-2-(3,4,5-trimethoxyphenyl)-6-[2-(1-hexamethyleneiminyl)ethoxy]benzimidazole]"

# — EP0694535A1, “Non-peptidyl tachykinin receptor antagonists” (ELI LILLY AND COMPANY, priority 1994, dated 1996)
